In article PMC9032233, “2-{5-[(Z,2Z)-2-Chloro-3-(4-nitrophenyl)-2-propenylidene]-4-oxo-2-thioxothiazolidin-3-yl}-3-methylbutanoic Acid as a Potential Anti-Breast Cancer Molecule” (International Journal of Molecular Sciences, 2022):

Tests used:
[1] = Parallel artificial membrane permeability assay (PAMPA); format: in vitro ADME; details: 200 µM in PBS pH 7.4, 5 h at RT, read-out: permeability coefficient Pe
Experimental: All in vitro assays used for the evaluation of Les-3331 ADME-Tox parameters were described previously. In brief, for the determination of permeability, Pre-coated PAMPA Plate System Gentest^TM was purchased from Corning (Tewksbury, MA, USA). […] PAMPA plates with compounds added to the donor wells were incubated for 5 h at RT. UPLC-MS Waters ACQUITY—TQD system with the TQ Detector (Waters, Milford, MI, USA) was used next for determination of compounds concentrations in donor and acceptor wells, which were required for calculation of permeability coefficient Pe according to formulas provided by the manufacturer.

LC3A [2] = assay: LC3A concentration in MCF-7 cell lysates (ELISA); format: cell-based, human; details: MCF-7, 5 mM, 24 h; control 6.726 ng/mL
Experimental: (§1) High sensitivity assay kits (EIAab Science Co., Ltd., Wuhan, China; Abcam plc., Cambridge, United Kingdom; Cloud-Clone Corp., Katy, TX, USA) were used to determine the concentrations of selected proteins in cell lysates […] In brief, after trypsinization, cells were washed thrice with cold PBS and centrifuged at 1000× g for 5 min at 4 °C. Then, cells (1.5 × 10^6) were suspended in lysis buffer for whole-cell lysates. After the second centrifugation, cellular supernatants were frozen immediately at −70 °C. Untreated cancer cells were taken as a control.
(§2) The microtiter plates provided in the kits were pre-coated with an antibody specific to the analyzed antigen. The tests were carried out according to the manufacturer’s protocols.

LC3A [3] = assay: LC3A concentration in MDA-MB-231 cell lysates (ELISA); format: cell-based, human; details: MDA-MB-231, 5 mM, 24 h; control 2.965 ng/mL
Experimental: as §1, §2

LC3B [4] = assay: LC3B concentration in MCF-7 cell lysates (ELISA); format: cell-based, human; details: MCF-7, 5 mM, 24 h; control 1.194 ng/mL
Experimental: as §1, §2

LC3B [5] = assay: LC3B concentration in MDA-MB-231 cell lysates (ELISA); format: cell-based, human; details: MDA-MB-231, 5 mM, 24 h; control 1.504 ng/mL
Experimental: as §1, §2

Beclin-1 [6] = assay: Beclin-1 concentration in MCF-7 cell lysates (ELISA); format: cell-based, human; details: 5 mM, 24 h, control 7.965 ng/mL
Experimental: as §1, §2

Beclin-1 [7] = assay: Beclin-1 concentration in MDA-MB-231 cell lysates (ELISA); format: cell-based, human; parameters: unit of the concentration uncertain; details: MDA-MB-231, 5 (unit uncertain), 24 h; control 3.605 ng/mL
Experimental: as §1, §2

Question: Which Papp at 5 h, 200 µM [1] does the source give for Cn1c(=O)c2c(ncn2C)n(C)c1=O [caffeine, reference compound] here?
Answer: 6.58 ×10⁻⁶ cm/s

Question: With Cn1cnc(N)c2ncnc1-2 [3-MA, 3-Methyladenine] as the compound, how does the LC3A concentration (LC3A [2]) read?
Answer: 4.423 ng/mL

Question: And the LC3A concentration (LC3A [3])?
Answer: 0.994 ng/mL

Question: And the LC3B concentration (LC3B [4])?
Answer: 0.664 ng/mL

Question: And the LC3B concentration (LC3B [5])?
Answer: 0.628 ng/mL

Question: And the Beclin-1 concentration (Beclin-1 [6])?
Answer: 6.344 ng/mL

Question: What about the Beclin-1 concentration (Beclin-1 [7]) of the same compound?
Answer: 2.399 ng/mL
